Results from patent publication US12428406B2 (PMV Pharmaceuticals, Inc., priority 2019, dated 2025).

The molecules below were run against T1, p53 Y220C (Homo sapiens, UniProt P04637, Y220C) (assay: In vitro DNA binding activity assay (HTRF / TR-FRET): stabilization of p53 Y220C and increase of its DNA binding activity). Conditions: recombinant His-tagged p53 Y220C DNA binding domain (aa 94-312), biotin-labeled consensus DNA, incubated at 27° C. or 29° C. for 60 min.
T1 construct: The recombinant protein was a truncation mutant containing only amino acids 94-312 of p53; made in house; host or cells: E. coli
Assay type: biochemical
How it was run: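 E. coli His-p53 Y220C + biotin consensus DNA; anti-His-APC/SA-Eu TR-FRET. SC150 vs no-compound.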

T1 sequence (P04637 94-312, change not shown): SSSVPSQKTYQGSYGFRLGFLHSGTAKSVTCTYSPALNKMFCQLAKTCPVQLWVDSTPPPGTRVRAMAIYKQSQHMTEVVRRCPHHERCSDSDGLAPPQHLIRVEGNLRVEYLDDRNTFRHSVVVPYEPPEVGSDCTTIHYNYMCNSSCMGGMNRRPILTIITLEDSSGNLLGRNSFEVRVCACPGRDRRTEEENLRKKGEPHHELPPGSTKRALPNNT

SC150 (concentration of the compound required to increase the DNA binding activity by 50%), + (+ = 0 μM ≤ SC150 < 0.05 μM):
COc1cc(S(N)(=O)=O)ccc1NCC#Cc1cc2c(N[C@H]3CC[C@H](N4CC5(CCC5)C4)CC3)cccc2n1CC(F)(F)F [Compound 198A, 3-methoxy-4-{[3-(4-{[(1R,4R)-4-{2-azaspiro[3.3]heptan-2-yl}cyclohexyl]amino}-1-(2,2,2-trifluoroethyl)-1H-indol-2-yl)prop-2-yn-1-yl]amino}benzene-1-sulfonamide]
COc1cc(S(C)(=O)=O)ccc1NCC#Cc1cc2c(N[C@H]3CC[C@H](N4CC5(COC5)C4)CC3)cccc2n1CC(F)(F)F [Compound 202A, 2-{3-[(4-methanesulfonyl-2-methoxyphenyl)amino]prop-1-yn-1-yl}-N-[(1R,4R)-4-{2-oxa-6-azaspiro[3.3]heptan-6-yl}cyclohexyl]-1-(2,2,2-trifluoroethyl)-1H-indol-4-amine]
COc1cc(S(C)(=O)=O)ccc1NCC#Cc1cc2c(N[C@H]3CC[C@@H](N4CC5(COC5)C4)CC3)cccc2n1CC(F)(F)F [Compound 203A, 2-{3-[(4-methanesulfonyl-2-methoxyphenyl)amino]prop-1-yn-1-yl}-N-[(1S,4S)-4-{2-oxa-6-azaspiro[3.3]heptan-6-yl}cyclohexyl]-1-(2,2,2-trifluoroethyl)-1H-indol-4-amine]
COc1cc(S(N)(=O)=O)ccc1NCC#Cc1cc2c(N[C@H]3CC[C@@H](N4CC5(COC5)C4)CC3)cccc2n1CC(F)(F)F [Compound 204A, 3-methoxy-4-{[3-(4-{[(1R,4R)-4-{2-oxa-6-azaspiro[3.3]heptan-6-yl}cyclohexyl]amino}-1-(2,2,2-trifluoroethyl)-1H-indol-2-yl)prop-2-yn-1-yl]amino}benzene-1-sulfonamide]
COc1cc(S(N)(=O)=O)ccc1NCC#Cc1cc2c(N[C@H]3CC[C@H](N4CC5(COC5)C4)CC3)cccc2n1CC(F)(F)F [Compound 205A, 3-methoxy-4-{[3-(4-{[(1S,4S)-4-{2-oxa-6-azaspiro[3.3]heptan-6-yl}cyclohexyl]amino}-1-(2,2,2-trifluoroethyl)-1H-indol-2-yl)prop-2-yn-1-yl]amino}benzene-1-sulfonamide]
CCC(=O)NS(=O)(=O)c1ccc(NCC#Cc2cc3c(N[C@H]4CC[C@H](N5CC6(COC6)C5)CC4)cccc3n2CC(F)(F)F)c(OC)c1 [Compound 206A, N-(3-methoxy-4-{[3-(4-{[(1R,4R)-4-{2-oxa-6-azaspiro[3.3]heptan-6-yl}cyclo-hexyl]amino}-1-(2,2,2-trifluoroethyl)-1H-indol-2-yl)prop-2-yn-1-yl]amino}benzene-sulfonyl)propanamide]
CCC(=O)NS(=O)(=O)c1ccc(NCC#Cc2cc3c(N[C@H]4CC[C@@H](N5CC6(COC6)C5)CC4)cccc3n2CC(F)(F)F)c(OC)c1 [Compound 207A, N-(3-methoxy-4-{[3-(4-{[(1S,4S)-4-{2-oxa-6-azaspiro[3.3]heptan-6-yl}cyclo-hexyl]amino}-1-(2,2,2-trifluoroethyl)-1H-indol-2-yl)prop-2-yn-1-yl]amino}benzene-sulfonyl)propanamide]
COc1cc(S(=O)(=O)NC(C)=O)ccc1NCC#Cc1cc2c(N[C@H]3CC[C@H](N4CC5(COC5)C4)CC3)cccc2n1CC(F)(F)F [Compound 208A, N-(3-methoxy-4-{[3-(4-{[(1R,4R)-4-{2-oxa-6-azaspiro[3.3]heptan-6-yl}cyclohexyl]amino}-1-(2,2,2-trifluoro-ethyl)-1H-indol-2-yl)prop-2-yn-1-yl]amino}benzene-sulfonyl)acetamide]
COc1cc(S(=O)(=O)NC(C)=O)ccc1NCC#Cc1cc2c(N[C@H]3CC[C@@H](N4CC5(COC5)C4)CC3)cccc2n1CC(F)(F)F [Compound 209A, N-(3-methoxy-4-{[3-(4-{[(1S,4S)-4-{2-oxa-6-azaspiro[3.3]heptan-6-yl}cyclohexyl]amino}-1-(2,2,2-trifluoroethyl)-1H-indol-2-yl)prop-2-yn-1-yl]amino}benzene-sulfonyl)acetamide]
CS(=O)(=O)c1ccc(NCC#Cc2cc3c(N[C@H]4CC[C@H](N5CC6(COC6)C5)CC4)cccc3n2CC(F)(F)F)c(OCCF)c1 [Compound 210A, N-((1R,4R)-4-(2-oxa-6-azaspiro[3.3]heptan-6-yl)cyclohexyl)-2-(3-((2-(2-fluoroethoxy)-4-(methylsulfonyl)phenyl)amino)prop-1-yn-1-yl)-1-(2,2,2-trifluoroethyl)-1H-indol-4-amine]
COc1cc(C(N)=O)ccc1NCC#Cc1cc2c(N[C@H]3CC[C@H](N4CC5(COC5)C4)CC3)cccc2n1CC(F)(F)F [Compound 212A, 3-methoxy-4-{[3-(4-{[(1R,4R)-4-{2-oxa-6-azaspiro[3.3]heptan-6-yl}cyclohexyl]amino}-1-(2,2,2-trifluoroethyl)-1H-indol-2-yl)prop-2-yn-1-yl]amino}benzamide]
COc1cc(C(N)=O)ccc1NCC#Cc1cc2c(N[C@H]3CC[C@@H](N4CC5(COC5)C4)CC3)cccc2n1CC(F)(F)F [Compound 213A, 3-methoxy-4-{[3-(4-{[(1S,4S)-4-{2-oxa-6-azaspiro[3.3]heptan-6-yl}cyclohexyl]amino}-1-(2,2,2-trifluoroethyl)-1H-indol-2-yl)prop-2-yn-1-yl]amino}benzamide]
CS(=O)(=O)c1ccc(NCC#Cc2cc3c(N[C@H]4CC[C@H](N5CC6(COC6)C5)CC4)cccc3n2CC(F)(F)F)c(O)c1 [Compound 214A, 5-methanesulfonyl-2-{[3-(4-{[(1R,4R)-4-{2-oxa-6-azaspiro[3.3]heptan-6-yl}cyclohexyl]amino}-1-(2,2,2-trifluoro-ethyl)-1H-indol-2-yl)prop-2-yn-1-yl]amino}phenol]
CS(=O)(=O)c1ccc(NCC#Cc2cc3c(N[C@H]4CC[C@@H](N5CC6(COC6)C5)CC4)cccc3n2CC(F)(F)F)c(O)c1 [Compound 215A, 5-methanesulfonyl-2-{[3-(4-{[(1S,4S)-4-{2-oxa-6-azaspiro [3.3]heptan-6-yl}cyclo-hexyl]amino}-1-(2,2,2-trifluoroethyl)-1H-indol-2-yl)prop-2-yn-1-yl]amino}phenol]
